Test results published in ChEMBL document CHEMBL3137667, “[Drug-induced liver injury; fourteenth updated edition of the bibliographic database of liver injuries and related drugs]” (Gastroenterol Clin Biol, 2004).

What was measured:
[1] = Highest frequency of moderate liver toxicity observed during clinical trials, expressed as a percentage. [column '% BIOL' in source]; settings: human
[2] = human
[3] = human; remark: listed apart in the source
[4] = human; remark: listed apart in the source
[5] = human, serum
[6] = human; remark: listed apart in the source
[7] = human, serum, 4383 h
[8] = human; remark: listed apart in the source
[9] = Highest frequency of acute liver toxicity observed during clinical trials, expressed as a percentage. [column '% AIGUE' in source]; settings: human
[10] = human; remark: listed apart in the source
[11] = human, serum; remark: listed apart in the source
[12] = human; remark: listed apart in the source
[13] = human; remark: listed apart in the source
[14] = human; remark: listed apart in the source
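Wherever Hepatotoxicity (association with vascular disease) is given: count of indexed literature references reporting vascular liver injury in humans, e.g. peliosis hepatitis, hepatic veno-occlusive disease or Budd-Chiari syndrome.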
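Wherever Hepatotoxicity (benign tumour) is given: value is a count of indexed literature references citing a benign tumour confirmed by histopathology.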
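Wherever Hepatotoxicity (choleostasis) is given: human cholestatic liver injury, shown by histopathology or by peak ALT or AST elevation over alkaline phosphatase ratio below 2, value counts indexed literature reports.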
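Wherever Hepatotoxicity (chronic liver disease) is given: chronic liver injury confirmed by histopathology or persistently raised serum aminotransferase activity beyond 6 months, value given as the count of indexed literature references.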
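Wherever Hepatotoxicity (cirrhosis) is given: value is a count of indexed literature references reporting cirrhosis confirmed by histopathology.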
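Wherever Hepatotoxicity (cytolytic) is given: human cytolytic liver injury, shown by histopathology or by a ratio above 5 of peak ALT or AST elevation to alkaline phosphatase elevation, value counts indexed references.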
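Wherever Hepatotoxicity (granulomatous hepatitis) is given: value is a count of indexed literature references reporting granulomatous liver disease confirmed by histopathology.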
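Wherever Hepatotoxicity (malignant tumour) is given: malignant tumour confirmed by histopathology, value gives the count of indexed literature references reporting it.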
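Wherever Hepatotoxicity (severe hepatitis) is given: human clinical data: severe hepatitis, meaning potentially life-threatening liver failure or clinically observed cases, the value counts how many indexed literature references report it.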
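Wherever Hepatotoxicity (steatosis) is given: steatosis confirmed by histopathology, value is the count of indexed references.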

| SMILES | Hepatotoxicity (moderate) ([1]; Liver) [%] | Hepatotoxicity (cytolytic) ([2]; Liver) | Hepatotoxicity (association with vascular disease) [3] | Hepatotoxicity (severe hepatitis) ([4]; Liver) | Hepatotoxicity (acute) [5] | Hepatotoxicity (malignant tumour) [6] | Hepatotoxicity (chronic liver disease) [7] | Hepatotoxicity (choleostasis) ([8]; Liver) | Hepatotoxicity (acute) ([9]; Liver) [%] | Hepatotoxicity (cirrhosis) [10] | Hepatotoxicity (moderate) [11] | Hepatotoxicity (benign tumour) [12] | Hepatotoxicity (steatosis) [13] | Hepatotoxicity (granulomatous hepatitis) ([14]; Liver) | Hepatotoxicity (moderate) [1] [%] | Hepatotoxicity (cytolytic) [2] | Hepatotoxicity (severe hepatitis) [4] | Hepatotoxicity (choleostasis) [8] | Hepatotoxicity (acute) [9] [%] | Hepatotoxicity (granulomatous hepatitis) [14] |
| --- | --- | --- | --- | --- | --- | --- | --- | --- | --- | --- | --- | --- | --- | --- | --- | --- | --- | --- | --- | --- |
| CC[C@H]1OC(=O)[C@H](C)C(=O)[C@H](C)[C@@H](O[C@@H]2O[C@H](C)C[C@H](N(C)C)[C@H]2O)[C@](C)(OC)C[C@@H](C)C(=O)[C@H](C)[C@H]2N(CCCCn3cnc(-c4cccnc4)c3)C(=O)O[C@]12C [TELITHROMYCIN] | 1.8 | 0 | 0 | 0 | 0 | 0 | 0 | 0 | 0 | 0 | 4 | 0 | 0 | 0 | – | – | – | – | – | – |
| CC1CN(c2cc3c(cc2F)c(=O)c(C(=O)O)cn3-c2ccc(F)cc2F)CCN1 (centres undefined) [TEMAFLOXACIN] | – | – | 0 | – | 0 | 0 | 0 | – | – | 0 | 33 | 0 | 0 | – | 44.4 | 0 | 0 | 0 | 0 | 0 |
| Cn1nnc2c(C(N)=O)ncn2c1=O [TEMOZOLOMIDE] | – | – | 0 | – | 1 | 0 | 0 | – | – | 0 | 1 | 0 | 0 | – | 47.5 | 1 | 0 | 0 | 3 | 0 |
| NC(=O)N1C(=O)/C(=C(\O)c2cccs2)c2cc(Cl)ccc21 [TENIDAP] | – | – | 0 | – | 2 | 0 | 0 | – | – | 0 | 3 | 0 | 0 | – | 18.8 | 1 | 0 | 1 | 0.8 | 0 |
| COc1ccc(-n2nc(CCC(=O)N(C)O)cc2-c2ccc(Cl)cc2)cc1 [TEPOXALIN] | – | – | 0 | – | 0 | 0 | 0 | – | – | 0 | 1 | 0 | 0 | – | 2.5 | 0 | 0 | 0 | 0 | 0 |
| C[C@@H]1C[C@H](C)CN(S(=O)(=O)c2ccc(Cl)c(C(=O)O)c2)C1 [TIBRIC ACID] | – | – | 0 | – | 0 | 0 | 0 | – | – | 0 | 1 | 0 | 0 | – | 0 | 0 | 0 | 0 | 0 | 0 |
| CC(C)CCOc1ccc(NC(=S)Nc2ccc(OCCC(C)C)cc2)cc1 [TIOCARLIDE] | – | – | 0 | – | 2 | 0 | 0 | – | – | 0 | 1 | 0 | 0 | – | 4.5 | 2 | 0 | 0 | 0.4 | 0 |
| Clc1ccc(C(Cn2ccnc2)OCc2ccsc2Cl)c(Cl)c1 (centres undefined) [TIOCONAZOLE] | 5.3 | 0 | 0 | 0 | 0 | 0 | 0 | 0 | 0 | 0 | 1 | 0 | 0 | 0 | – | – | – | – | – | – |
| O=C1CC2(CCCC2)CC(=O)N1CCCCN1CCN(c2nsc3ccccc23)CC1 [TIOSPIRONE] | – | – | 0 | – | 0 | 0 | 0 | – | – | 0 | 1 | 0 | 0 | – | 7.1 | 0 | 0 | 0 | 0 | 0 |
| CC[C@@]1(O)C(=O)OCc2c1cc1n(c2=O)Cc2cc3c(CN(C)C)c(O)ccc3nc2-1 [TOPOTECAN] | – | – | 0 | – | 0 | 0 | 0 | – | – | 0 | 1 | 0 | 0 | – | 5.3 | 0 | 0 | 0 | 0 | 0 |
| Cc1cccc(Nc2ccncc2S(=O)(=O)NC(=O)NC(C)C)c1 [TORSEMIDE] | – | – | 0 | – | 0 | 0 | 0 | – | – | 0 | 1 | 0 | 0 | – | 0.6 | 0 | 0 | 0 | 0 | 0 |
| NC1CCN(c2nc3c(cc2F)c(=O)c(C(=O)O)cn3-c2ccc(F)cc2F)C1 (centres undefined) [TOSUFLOXACIN] | – | – | 0 | – | 0 | 0 | 0 | – | – | 0 | 3 | 0 | 0 | – | 6.1 | 0 | 0 | 0 | 0 | 0 |
| COc1cccc(C2(O)CCCCC2CN(C)C)c1 (centres undefined) [TRAMADOL] | – | – | 0 | – | 0 | 0 | 0 | – | – | 0 | 1 | 0 | 0 | – | 0 | 0 | 0 | 0 | 0 | 0 |
| OC(CCN1CCCCC1)(c1ccccc1)C1CCCCC1 (centres undefined) [TRIHEXYPHENIDYL] | 0 | 1 | 0 | 1 | 1 | 0 | 0 | 0 | 0 | 0 | 0 | 0 | 0 | 0 | – | – | – | – | – | – |
| COc1cc(NCc2ccc3nc(N)nc(N)c3c2C)cc(OC)c1OC [TRIMETREXATE] | – | – | 0 | – | 1 | 0 | 0 | – | – | 0 | 10 | 0 | 0 | – | 25 | 0 | 0 | 0 | 8 | 0 |
| CCCCC(C)(C)[C@H](O)/C=C/[C@H]1[C@H](C)CC(=O)[C@@H]1C/C=C\CCCC(=O)O [TRIMOPROSTIL] | – | – | 0 | – | 0 | 0 | 0 | – | – | 0 | 1 | 0 | 0 | – | 0 | 0 | 0 | 0 | 0 | 0 |
